Reference: ChEMBL document CHEMBL1136080, “(+/-)-2-(3-Piperidyl)-1,2,3,4-tetrahydroisoquinolines as a new class of specific bradycardic agents” (2003)

Columns and labels:
Type in all cases: functional
[1] = test system: Rattus norvegicus; test: Dose to produce minimal influence on mean blood pressure in anesthetized rats
[2] = species: Cavia porcellus; test: Concentration required to produce 30% reduction (in vitro) from the initial spontaneous beat rates in isolated guinea pig atrium; settings: Cardiac atrium
[3] = test system: Rattus norvegicus; test: Percentage change in heart rate from the initial value in urethane-anesthetized rats at 3 mg/kg intravenous dose

Structure (SMILES) | Dose [1] | EC30 [2] | Change [3]
COc1cc2c(cc1OC)CN(C1CCCN(CCCOc3ccc4c(c3)OCO4)C1)CC2 (centres undefined) | 10 mg/kg | 250 nM | 47%
COc1cc2c(cc1OC)CN(C1CCCN(CCCCCc3ccccc3)C1)CC2 (centres undefined) | – | 1300 nM | –
COc1cc2c(cc1OC)CN(C1CCCN(CCCOc3ccc4ccccc4c3)C1)CC2 (centres undefined) | – | 840 nM | 23%
COc1cc2c(cc1OC)CN(C1CCCN(CCCCc3ccccc3)C1)CC2 (centres undefined) | – | 540 nM | 23%
COc1ccc(OCCCN2CCCC(N3CCc4cc(OC)c(OC)cc4C3)C2)cc1 (centres undefined) | – | 390 nM | 40%
COc1ccc(OCCCN2CCCC(N3CCc4cc(OC)c(OC)cc4C3)C2)cc1OC (centres undefined) | – | 380 nM | 47%
COc1cc2c(cc1OC)CN(C1CCCN(Cc3ccccc3)C1)CC2 (centres undefined) | – | 830 nM | 33%
COc1cc2c(cc1OC)CN(C1CCCN(CCCOc3ccc4c(c3)CCC4)C1)CC2 (centres undefined) | – | 660 nM | 38%
COc1cc2c(cc1OC)CN(C1CCCN(CCCc3ccccc3)C1)CC2 (centres undefined) | – | 1200 nM | –
COc1cc2c(cc1OC)CN(C1CCCN(CCc3ccccc3)C1)CC2 (centres undefined) | – | 2200 nM | –
COc1cc2c(cc1OC)CN(C1CCCN(CCCOc3ccc4c(c3)-c3ccccc3C4)C1)CC2 (centres undefined) | – | 4100 nM | –
COc1cc2c(cc1OC)CN(C1CCCN(CCCOc3ccccc3)C1)CC2 (centres undefined) | – | 430 nM | 40%
COc1ccc(CCN(C)CCCN2CCc3cc(OC)c(OC)cc3CC2=O)cc1OC [ZATEBRADINE] | – | 260 nM | 47%
COc1cc2c(cc1OC)CN(C1CCCN(CCCOc3cc(OC)c(OC)c(OC)c3)C1)CC2 (centres undefined) | – | 1500 nM | –
